One assay concerns HCT116 MTAP WT cells. As to the kind of experiment: Proliferation inhibition of HCT116 cells in vitro (CellTiter Glo, 6 days). It is filed as cell-based. The note with it: read-out: Cell proliferation inhibition rate HCT116 MTAP WT IC50 (nm). The text has this: (§1) Biological Test Example 2 Proliferation Inhibition of HCT116 and HCT116 MTAP-KO Cells In Vitro
(§2) HCT116 cell line was purchased from the Chinese Academy of Sciences Cell Bank, and the MTAP gene was knocked out by CRISPR/Cas9 technology to obtain HCT116-MTAP-KO cell line.
(§3) McCoy's 5A medium (Gibco, catalog No. 16600082), fetal bovine serum (Gibco, catalog No. 10099141C), penicillin-streptomycin double antibody (Gibco, catalog No. 15140122), pancreatic enzyme (Gibco, catalog No. 25200056), CellTiter Glo assay kit (Promega, catalog No. G7572), 384-well transparent flat-bottomed black walled cell culture plate (Corning, catalog No. 3764), ultra micro sampler (Tecan, catalog No. D300e), Multimode reader (Biotek, catalog No. SynergyHTX)
(§4) • 1. Cell culture: HCT116 and HCT116-MTAP-KO cells were cultured in McCoy'5A medium+10% fetal bovine serum+1% penicillin-streptomycin double antibody; to ensure that they were always in the logarithmic growth phase and the cell viability greater than 95%. • 2. Compound concentration gradient preparation: The compound to be tested was added to a 384-well plate using an ultra micro sampler, starting from 30 μM (HCT116 cells) or 3 μM (HCT116-MTAP-KO cells), and diluted with DMSO at 3 times for a total of 9 concentrations and set up three duplicate wells. • 3. Treatment of cells with compounds: Trypsin-digested HCT116 or HCT116-MTAP-KO cell suspension was added to the 384-well plates spotted with the compounds to be tested at 40 μL per well, i.e., 100 cells per well, and the final concentration of DMSO was 0.4%. The cell culture plate was incubated at 37° C. in a 5% CO2 incubator for 6 days. • 4. Detection: 20 μL of CellTiter Glo reagent was added to each well of the cell culture plate and incubated at room temperature for 30 minutes. A multimode reader was used to detect the luminescence signal at […]. • 5. Data analysis:
(§5) The data was fitted with GraphPad Prism 8.0 software using a four parameter inhibitor-reaction model to obtain the […] (half inhibitory concentration) of the test compounds.
(§6) The first column represents cell proliferation inhibition rate HCT116 MTAP WT IC50 (nm), and the second column represents cell proliferation inhibition rate HCT116-MTAP null IC50 (nm): […]

Assay [1] has as its system HCT116-MTAP-KO (MTAP null) cells. Nature of the assay: Proliferation inhibition of HCT116 MTAP-KO cells in vitro (CellTiter Glo, 6 days). Type of assay: cell-based. The note with it: read-out: Cell proliferation inhibition rate HCT116-MTAP null IC50 (nm).
From the text: as §1, §2, §3, §4, §5, §6

pIC50: −log10 of the molar value. Read-outs that look alike come from different tables or passages of the source.

`CC1OCc2c1c(N)nc1ccc(C(=O)N(Cc3cn4ccccc4n3)CC(F)F)cc21` (stereo not shown) [Example 66]: the pIC50 with HCT116 MTAP WT cells (Homo sapiens, HCT-116, 144 h) is 5.00 to 6.00; in assay [1] (HCT116-MTAP null, 144 h), 6.00 to 7.00.
On to `CC1OCc2c1c(N)nc1ccc(C(=O)N3C(C)COCC3c3cn4cc(C(F)(F)F)ccc4n3)cc21` (stereo not shown) [Example 67], for which the pIC50 is 5.00 to 6.00 in the assay with HCT116 MTAP WT cells (Homo sapiens, HCT-116, 144 h) and 6.00 to 7.00 in assay [1] (HCT116-MTAP null, 144 h).
The corresponding values for `Cn1cc(N(Cc2cn3cc(C(F)(F)F)ccc3n2)C(=O)c2ccc3nc(N)c4c(c3c2)COC4)cn1` [Example 68] are 5.00 to 6.00 and more than 7.00.
`CCN(Cc1cn2ccccc2n1)C(=O)c1cc2c(cn1)nc(N)c1cnc(C)n12` [Example 69]: the pIC50 in the assay with HCT116 MTAP WT cells (Homo sapiens, HCT-116, 144 h) was 5.00 to 6.00; in assay [1] (HCT116-MTAP null, 144 h), 6.00 to 7.00.
The corresponding values for `CC1OCc2c1c(N)nc1ccc(C(=O)N(Cc3nc4ccc(C(F)(F)F)cn4c3F)c3cnn(C)c3)cc21` (stereo not shown) [Example 71] are 5.00 to 6.00 and more than 7.00.
For `C[C@H]1OCc2c1c(N)nc1ccc(C(=O)N(Cc3cn4c(C(F)(F)F)cccc4n3)c3cnn(C)c3)cc21` [Example 72], the pIC50 in the assay on HCT116 MTAP WT cells (Homo sapiens, HCT-116, 144 h) is 5.00 to 6.00; in assay [1] (HCT116-MTAP null, 144 h) it was 5.00 to 6.00.
For `C[C@@H]1OCc2c1c(N)nc1ccc(C(=O)N(Cc3cn4c(C(F)(F)F)cccc4n3)c3cnn(C)c3)cc21` [Example 73], the pIC50 in the assay with HCT116 MTAP WT cells (Homo sapiens, HCT-116, 144 h) is 5.00 to 6.00; in assay [1] (HCT116-MTAP null, 144 h) it was more than 7.00.
The corresponding values for `CC1OCc2c1c(N)nc1ccc(C(=O)N(Cc3cn4c(C(F)(F)F)cccc4n3)c3cnn(C)c3)cc21` (stereo not shown) [Example 74] are 5.00 to 6.00 and 6.00 to 7.00.
In the same order, the values of `Cc1ccc2nc(CN(C(=O)c3ccc4nc(N)c5c(c4c3)COC5C)c3cnn(C)c3)cn2c1` (stereo not shown) [Example 75] are 5.00 to 6.00 and more than 7.00.
The corresponding values for `CC1OCc2c1c(N)nc1ccc(C(=O)N(Cc3cn4cc(C(F)F)ccc4n3)c3cnn(C)c3)cc21` (stereo not shown) [Example 78] are 5.00 to 6.00 and more than 7.00.
As to `Cn1cc(N(Cc2cn3cc(C(F)(F)F)ccc3n2)C(=O)c2cc3c4c(c(N)nc3cc2F)COC4)cn1` [Example 80], the pIC50 is 5.00 to 6.00 in the assay on HCT116 MTAP WT cells (Homo sapiens, HCT-116, 144 h) and more than 7.00 in assay [1] (HCT116-MTAP null, 144 h).
The corresponding values for `Cn1cc(N(Cc2cn3ccccc3n2)C(=O)c2cc3c4c(c(N)nc3cc2F)COC4)cn1` [Example 82] are 5.00 to 6.00 and more than 7.00.
In the same order, the values of `Cn1cc(N(Cc2nc3ccccn3c2F)C(=O)c2cc3c4c(c(N)nc3cc2F)COC4)cn1` [Example 83] are 6.00 to 7.00 and more than 7.00.
In the same order, the values of `Cn1cc(N(Cc2nc3ccc(C(F)(F)F)cn3c2F)C(=O)c2cc3c4c(c(N)nc3cc2F)COC4)cn1` [Example 84] are 5.00 to 6.00 and more than 7.00.
On to `CCN(Cc1cn2cc(C(F)(F)F)ccc2n1)C(=O)c1cc2c3c(c(N)nc2cc1F)COC3` [Example 85], for which the pIC50 with HCT116 MTAP WT cells (Homo sapiens, HCT-116, 144 h) is 5.00 to 6.00; in assay [1] (HCT116-MTAP null, 144 h), more than 7.00.
Turning to `CCN(Cc1cn2ccccc2n1)C(=O)c1cc2c3c(c(N)nc2cc1F)COC3` [Example 86], the pIC50 in the assay with HCT116 MTAP WT cells (Homo sapiens, HCT-116, 144 h) was 5.00 to 6.00; in assay [1] (HCT116-MTAP null, 144 h), more than 7.00.
As to `Cc1ccc2nc(CN(C(=O)c3cc4c5c(c(N)nc4cc3F)COC5)c3cnn(C)c3)cn2c1` [Example 87], the pIC50 was 5.00 to 6.00 in the assay on HCT116 MTAP WT cells (Homo sapiens, HCT-116, 144 h) and more than 7.00 in assay [1] (HCT116-MTAP null, 144 h).
The corresponding values for `Cn1ncc(N(Cc2cn3cc(C(F)(F)F)ccc3n2)C(=O)c2cc3c4c(c(N)nc3cc2F)COC4)n1` [Example 88] are 5.00 to 6.00 and more than 7.00.
In the same order, the values of `Cc1nn(C)cc1N(Cc1cn2cc(C(F)(F)F)ccc2n1)C(=O)c1ccc2nc(N)c3c(c2c1)COC3` [Example 89] are 5.00 to 6.00 and more than 7.00.
In the same order, the values of `Cc1nn(C)cc1N(Cc1cn2cc(C(F)(F)F)ccc2n1)C(=O)c1ccc2nc(N)c3c(c2c1)CO[C@H]3C` [Example 90] are 6.00 to 7.00 and more than 7.00.
With `Cn1cc(N(Cc2nc3ccc(C(F)(F)F)cn3c2F)C(=O)c2ccc3nc(N)c4c(c3c2)COC4)cn1` [Example 91], the pIC50 with HCT116 MTAP WT cells (Homo sapiens, HCT-116, 144 h) was 5.00 to 6.00; in assay [1] (HCT116-MTAP null, 144 h), more than 7.00.
In the same order, the values of `Cn1cc(N(Cc2nc3ccccn3c2F)C(=O)c2ccc3nc(N)c4c(c3c2)COC4)cn1` [Example 92] are 5.00 to 6.00 and more than 7.00.
In the same order, the values of `Cc1nn(C)cc1N(Cc1nc2ccc(C(F)(F)F)cn2c1F)C(=O)c1ccc2nc(N)c3c(c2c1)COC3` [Example 93] are 5.00 to 6.00 and more than 7.00.
As for `Nc1nc2cc(F)c(C(=O)N(Cc3cn4cc(C(F)(F)F)ccc4n3)C3CCOC3)cc2c2c1COC2` (stereo not shown) [Example 94], the pIC50 in the assay on HCT116 MTAP WT cells (Homo sapiens, HCT-116, 144 h) was 5.00 to 6.00; in assay [1] (HCT116-MTAP null, 144 h), 6.00 to 7.00.
Take `CCn1cc(N(Cc2cn3cc(C(F)(F)F)ccc3n2)C(=O)c2ccc3nc(N)c4c(c3c2)COC4)c(C)n1` [Example 95]: the pIC50 in the assay with HCT116 MTAP WT cells (Homo sapiens, HCT-116, 144 h) was 5.00 to 6.00; in assay [1] (HCT116-MTAP null, 144 h), more than 7.00.
In the same order, the values of `Cc1nn(C)cc1N(Cc1nc2ccccn2c1F)C(=O)c1ccc2nc(N)c3c(c2c1)COC3` [Example 96] are 5.00 to 6.00 and more than 7.00.
As to `CCc1nn(C)cc1N(Cc1cn2cc(C(F)(F)F)ccc2n1)C(=O)c1ccc2nc(N)c3c(c2c1)COC3` [Example 97], the pIC50 is 5.00 to 6.00 with HCT116 MTAP WT cells (Homo sapiens, HCT-116, 144 h) and more than 7.00 in assay [1] (HCT116-MTAP null, 144 h).
In the same order, the values of `Cc1cc(N(Cc2cn3cc(C(F)(F)F)ccc3n2)C(=O)c2ccc3nc(N)c4c(c3c2)COC4)n(C)n1` [Example 98] are 5.00 to 6.00 and more than 7.00.
Regarding `Cc1ncccc1N(Cc1cn2cc(C(F)(F)F)ccc2n1)C(=O)c1ccc2nc(N)c3c(c2c1)COC3` [Example 99], the pIC50 was 5.00 to 6.00 with HCT116 MTAP WT cells (Homo sapiens, HCT-116, 144 h) and more than 7.00 in assay [1] (HCT116-MTAP null, 144 h).
In the same order, the values of `Cc1ncccc1N(Cc1cn2cc(C(F)(F)F)ccc2n1)C(=O)c1ccc2nc(N)c3c(c2c1)COC3C` (stereo not shown) [Example 100] are 5.00 to 6.00 and more than 7.00.
The corresponding values for `CCn1cc(N(Cc2nc3ccc(C(F)(F)F)cn3c2F)C(=O)c2ccc3nc(N)c4c(c3c2)COC4)c(C)n1` [Example 101] are 5.00 to 6.00 and more than 7.00.
In the same order, the values of `Cc1cc2cc(C(=O)N(Cc3cn4cc(C(F)(F)F)ccc4n3)c3cn(C)nc3C)ccc2nc1N` [Example 103] are 5.00 to 6.00 and 6.00 to 7.00.
In the case of `Cc1nn(C)cc1N(Cc1cn2cc(C(F)(F)F)ccc2n1)C(=O)c1cc2c(cc1F)nc(N)c1cnn(C)c12` [Example 104], the values for the pIC50 (in the assay on HCT116 MTAP WT cells; in assay [1]) were 6.00 to 7.00 and more than 7.00, respectively.
On to `Cc1nn(C)cc1N(Cc1cn2cc(C(F)(F)F)ccc2n1)C(=O)c1ccc2nc(N)c3c(cnn3C)c2c1` [Example 105], for which the pIC50 with HCT116 MTAP WT cells (Homo sapiens, HCT-116, 144 h) is 5.00 to 6.00; in assay [1] (HCT116-MTAP null, 144 h), more than 7.00.
`Cn1nccc1N(Cc1cn2cc(C(F)(F)F)ccc2n1)C(=O)c1ccc2nc(N)c3c(c2c1)COC3` [Example 107]: the pIC50 in the assay with HCT116 MTAP WT cells (Homo sapiens, HCT-116, 144 h) is 5.00 to 6.00; in assay [1] (HCT116-MTAP null, 144 h) it was more than 7.00.
In the same order, the values of `Cc1cc(NC(=O)C(=O)N(Cc2cn3cc(C(F)(F)F)ccc3n2)c2cn(C)nc2C)cnc1N` [Example 108] are 5.00 to 6.00 and more than 7.00.
The corresponding values for `Cc1nn(C)cc1N(Cc1cn2cc(C(F)(F)F)ccc2n1)C(=O)c1ccc2nc(N)c3c(c2c1)OCC3` [Example 109] are 5.00 to 6.00 and more than 7.00.
Turning to `Cn1nccc1N(Cc1cn2cc(C(F)(F)F)ccc2n1)C(=O)c1cc2c(cc1F)nc(N)c1cnn(C)c12` [Example 111], the pIC50 (in the assay with HCT116 MTAP WT cells; in assay [1]) was more than 7.00 throughout.

The values are drawn from patent US20240376126A1, “PRMT5 INHIBITOR AND THE USE THEREOF” (CYTOSINLAB THERAPEUTICS CO., LTD., priority 2022, published 2024).
